Earlier results in patent US11452308B2, “Method of selecting a probiotic” (SOCIETE DES PRODUITS NESTLE S.A., priority 2017, dated 2022).

Columns and labels:
[1] = in vivo
[2] = compared with hydroxytyrosol

clearance from the plasma [1]	Compound	solubility in the lipophilic phases [2]
slower clearance from the plasma	CC=C1C(O)OC=C(C(=O)OC)C1CC(=O)OCCc1ccc(O)c(O)c1 (centres unmarked) [oleuropein aglycone, 3,4-dihydroxyphenylethanol-elenolic acid]	
	hydroxytyrosol acetate	more soluble in the lipophilic phases than hydroxytyrosol
